In data set [1] the target is E. coli gyrase (Escherichia coli, UniProt P0AES4+P0AES6). Description: biochemical. The following applies: supercoiling of relaxed pBR322, 30 minutes at 37° C.
The test system of data set [2] is E. coli Tol C. Description: Test A antibacterial assay, standard microtitration (MIC). In kind it is cell-based. Conditions: Escherichia coli, read-out: Minimum Inhibitory Concentrations E. coli Tol C. How it is done:
(§1) Test A-Antibacterial Assay
(§2) The compounds of the present invention were tested against an assortment of Gram-negative and Gram-positive organisms using standard microtitration techniques (Cohen, et al., Antimicrob. Agents Chemother., 1985;28:766; Heifetz, et al., Antimicrob. Agents Chemother:, 1974;6:124). […]

In data set [3] the test system is E. faecalis RB1. The description is as above. Conditions: Enterococcus faecalis. In kind it is cell-based. How it is done: as §1, §2
Data set [4] has as its system S. pyogenes C203. The data set is described as above. The following applies: Streptococcus pyogenes. The data set is classed as cell-based. The method, then:
as §1, §2

For data set [5], the system named is E. coli MC 4100. The data set is described as above. In kind it is cell-based. The following applies: Escherichia coli. The method, then: as §1, §2
Data set [6] concerns E. coli B90. Described as above. In kind it is cell-based. The following applies: Escherichia coli. The method, then: as §1, §2
Data set [7] relates to S. pyogenes. The experiment in a line: Test C in vivo activity, median protective dose in mice given lethal systemic infections. Conditions: PO, lethal systemic infection with S. pyogenes.
For data set [8], the system named is S. aureus 2554. The experiment in a line: Test D cross resistance antibacterial assay (MIC). The following applies: relative to MIC against S. aureus UC-76. In kind it is cell-based. How it is done:
(§3) Test D-Cross Resistance Antibacterial Assay
(§4) The compounds of the present invention were tested against an assortment of ciprofloxacin resistant E. coli and S. aureus organisms described below using standard microtitration techniques (Cohen, et al., Antimicrob. Agents Chemother., 1985;28:766; Heifetz, et al., Antimicrob. Agents Chemother., 1974;6:124). […].
S. aureus 2554: Isogenic to S. aureus 2552, with point mutation at position 80 of grlA subunit.

Data set [9] concerns S. aureus UC-76. The experiment in a line: Test D cross resistance antibacterial assay (MIC). In kind it is cell-based. Conditions: Staphylococcus aureus, UC76; wild type sensitive laboratory strain; read-out: Minimum Inhibitory Concentrations S. aureus UC-76. The method, then: as §3, §4
S. aureus UC-76: Typical sensitive laboratory strain (Wild type).

The test system of data set [10] is S. aureus 2558. Description: Test D cross resistance antibacterial assay (MIC). In kind it is cell-based. Conditions: relative to MIC against S. aureus UC-76. How it is done: as §3, §4
S. aureus 2558: Isogenic to S. aureus 2554, with point mutation at position 84 of gyrA subunit.

In data set [11] the test system is N. gonorrhoeae 2709. Description: Test D cross resistance antibacterial assay (MIC). In kind it is cell-based, Neisseria gonorrhoeae. The following applies: for MIC: Neisseria gonorrhoeae, 2709, read-out: Minimum Inhibitory Concentrations N. g. 2709; for MIC fold increase N. g. 2709 (in parentheses): relative to MIC against N. g. 2637. How it is done:
as §3, §4
N. gonorrhoeae 2709 (N.g. 2709): Isogenic to N. gonorrhoeae 2637 contains gyrA quinolone-resistant determining region (QRDR) mutations (S91F D95G).

Data set [12] has as its system S. aureus 2552. The experiment in a line: Test D cross resistance antibacterial assay (MIC). The data set is classed as cell-based. The following applies: for MIC: Staphylococcus aureus, 2552, upregulated norA pump, read-out: Minimum Inhibitory Concentrations S. aureus 2552; for MIC fold increase S. aureus 2552 (in parentheses): relative to MIC against S. aureus UC-76. The method, then: as §3, §4

In data set [13] the test system is S. aureus 29213. Description: Test A antibacterial assay, standard microtitration (MIC). In kind it is cell-based. How it is done:
as §1, §2

The test system of data set [14] is N. gonorrhoeae 2693. The experiment in a line: Test D cross resistance antibacterial assay (MIC). The data set is classed as cell-based, Neisseria gonorrhoeae. Conditions: relative to MIC against N. g. 2637. How it is done: as §3, §4
N. gonorrhoeae 2693 (N.g. 2693): Isogenic to N. gonorrhoeae 2709 containing parC QRDR mutations [P88S and E91K].

The subject of data set [15] is N. gonorrhoeae 2637. The experiment in a line: Test D cross resistance antibacterial assay (MIC). The following applies: Neisseria gonorrhoeae, 2637; parent strain, derivative of MS11; read-out: Minimum Inhibitory Concentrations N. g. 2637. The data set is classed as cell-based, Neisseria gonorrhoeae. The method, then: as §3, §4
N. gonorrhoeae 2637 (N.g. 2637) is a derivative of Neisseria gonorrhoeae MS11 containing a TAC-LAC recA to allow for control of homologous recombination [Tonjum T. et al. Molecular Microbiology 1995, 16, 451-64].

[16] abbreviates: Gram positive, E. faecalis RB1, read-out: Minimum Inhibitory Concentrations E. faecalis RB1.
Where [17] appears, read: Gram positive, S. pyogenes C203, read-out: Minimum Inhibitory Concentrations S. pyogenes C203.
The mark [18] stands for this setting: MC4100, Gram negative, E. coli MC 4100, read-out: Minimum Inhibitory Concentrations E. coli MC 4100.
[19] abbreviates: Gram negative, E. coli B90, read-out: Minimum Inhibitory Concentrations E. coli B90.
Where [20] appears, read: Staphylococcus aureus, Gram positive, S. aureus 29213, read-out: Minimum Inhibitory Concentrations S. aureus 29213.

pIC50: −log10 of the molar value. ≈ marks a conversion by molar mass, not a printed value. Structures can show the parent of a compound that is named as a salt. Where two headings read alike, the source gives them in different places.

E. coli gyrase, sequence (P0AES4 whole entry, one chain of several): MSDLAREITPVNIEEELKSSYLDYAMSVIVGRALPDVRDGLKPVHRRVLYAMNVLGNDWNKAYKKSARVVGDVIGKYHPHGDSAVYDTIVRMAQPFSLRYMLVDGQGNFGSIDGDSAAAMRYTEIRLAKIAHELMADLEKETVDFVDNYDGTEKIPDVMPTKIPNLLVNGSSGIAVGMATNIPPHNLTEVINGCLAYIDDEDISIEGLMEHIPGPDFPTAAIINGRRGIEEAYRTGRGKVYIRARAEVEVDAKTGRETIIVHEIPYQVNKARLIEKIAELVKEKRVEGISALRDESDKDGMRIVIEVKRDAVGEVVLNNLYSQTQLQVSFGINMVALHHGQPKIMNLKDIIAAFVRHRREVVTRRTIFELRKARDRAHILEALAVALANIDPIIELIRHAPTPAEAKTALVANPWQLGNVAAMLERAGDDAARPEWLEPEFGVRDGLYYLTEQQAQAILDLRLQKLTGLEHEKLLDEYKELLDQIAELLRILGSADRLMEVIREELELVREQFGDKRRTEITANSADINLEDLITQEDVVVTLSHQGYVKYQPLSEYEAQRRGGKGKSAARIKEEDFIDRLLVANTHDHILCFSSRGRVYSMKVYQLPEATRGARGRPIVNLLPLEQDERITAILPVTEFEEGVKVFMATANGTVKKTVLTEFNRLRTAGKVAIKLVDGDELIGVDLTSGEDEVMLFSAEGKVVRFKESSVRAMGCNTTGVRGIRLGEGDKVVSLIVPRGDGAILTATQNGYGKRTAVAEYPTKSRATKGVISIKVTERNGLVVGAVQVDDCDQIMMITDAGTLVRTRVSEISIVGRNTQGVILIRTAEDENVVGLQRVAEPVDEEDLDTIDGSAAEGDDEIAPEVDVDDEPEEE

With `CN[C@@H](C)[C@@H]1CCN(c2c(F)cc3c(=O)[nH]c(=O)n(C4CC4)c3c2OC)C1` [Example 3, 1-Cyclopropyl-6-fluoro-8-methoxy-7-[(R)-3-((S)-1-methylaminoethyl)pyrrolidin-1-yl]-1H-quinazolinedione], the melting point – broadly, the temperature of the solid-liquid transition – lay within 162 to 164 °C. Moreover, the negative-log IC50 (pIC50) (commonly the negative decadic logarithm of the IC50, by convention in mol/L) in data set [1] is 5.15. Also, in data set [2], the MIC worked out at 0.5 µg/mL (≈ 1.33 µM). In data set [3] (setting [16]), the MIC is 2 µg/mL (≈ 5.31 µM). Besides, in data set [4] (setting [17]), the MIC worked out at 0.13 µg/mL (≈ 0.345 µM). The MIC in data set [5] (setting [18]) was determined as 32 µg/mL (≈ 85 µM). In [6] (setting [19]), the MIC was 2 µg/mL (≈ 5.31 µM).
As for `O=C(O)c1cn(C2CC2)c2cc(N3CCNCC3)c(F)cc2c1=O` [Ciprofloxacin, ciprofloxacin, reference compound], in [7], the PD50 is above 100.0 mg/kg. In data set [8], the “MIC fold increase S. aureus 2554 (in parentheses)” value is reported as “(15x)”. Moreover, the MIC in [9] is 0.13 µg/mL (≈ 0.392 µM); in [11], 0.06 µg/mL (≈ 0.181 µM); in [12], 2 µg/mL (≈ 6.04 µM); in [13] (setting [20]), 0.5 µg/mL (≈ 1.51 µM); in data set [2], below 0.01 µg/mL; in data set [3] (setting [16]), 0.5 µg/mL (≈ 1.51 µM). Moreover, the MIC was 0.5 µg/mL (≈ 1.51 µM) in [4] (setting [17]), below 0.02 µg/mL in data set [5] (setting [18]), below 0.01 µg/mL in [6] (setting [19]) and 0.002 µg/mL in data set [15]. Further, the “MIC fold increase S. aureus 2558 (in parentheses)” value in [10] is recorded as “(123x)”. Moreover, in [11], the “MIC fold increase N. g. 2709 (in parentheses)” value is recorded as “(30x)”. The “MIC fold increase S. aureus 2552 (in parentheses)” value in data set [12] was “(15x)”. In addition, in [14], the “MIC fold increase N. g. 2693 (in parentheses)” value is on record as “(1000x)”.
In data set [7], `Cc1c(N2CC[C@@H]([C@H](C)N)C2)c(F)cc2c(=O)[nH]c(=O)n(C3CC3)c12` [Example 4b, 7-[(R)-3-((S)-1-Aminoethyl)pyrrolidin-1-yl]-1-cyclopropyl-6-fluoro-8-methyl-1H-quinazolinedione Hydrochloride] registered a PD50 of 3.6 mg/kg. The “MIC fold increase S. aureus 2554 (in parentheses)” value in data set [8] is on record as “(2x)”. Further, the MIC in data set [9] amounted to 0.13 µg/mL; in [11], 2 µg/mL; in data set [12], 0.5 µg/mL; in data set [13] (Staphylococcus aureus, 29213, read-out: Minimum Inhibitory Concentrations S. aureus 29213) it was 0.25 µg/mL; in data set [2] it was 0.13 µg/mL; in [3] (RB1, read-out: Minimum Inhibitory Concentrations E. faecalis RB1) it was 0.13 µg/mL. In addition, the MIC turned out to be 0.015 µg/mL in data set [4] (C203, read-out: Minimum Inhibitory Concentrations S. pyogenes C203); 4 µg/mL in data set [5] (MC4100, read-out: Minimum Inhibitory Concentrations E. coli MC 4100); 0.13 µg/mL in data set [6] (B90, read-out: Minimum Inhibitory Concentrations E. coli B90); 0.25 µg/mL in data set [15]. Moreover, in data set [10], the “MIC fold increase S. aureus 2558 (in parentheses)” value is recorded as “(8x)”. Besides, in data set [1], the pIC50 was 6.22. Also, the “MIC fold increase N. g. 2709 (in parentheses)” value in data set [11] was “(8x)”. In addition, the “MIC fold increase S. aureus 2552 (in parentheses)” value in [12] is “(4x)”. Moreover, the “MIC fold increase N. g. 2693 (in parentheses)” value in [14] is “(8x)”.
In data set [7], `CN[C@@H](C)[C@@H]1CCN(c2c(F)cc3c(=O)[nH]c(=O)n(C4CC4)c3c2C)C1` [Example 2, 1-Cyclopropyl-6-fluoro-8-methyl-7-[(R)-3-((S)-1-methylaminoethyl)pyrrolidin-1-yl]-1H-quinazolinedione] gave a PD50 of 10.8 mg/kg. For the same molecule, in data set [8], the “MIC fold increase S. aureus 2554 (in parentheses)” value is “(2x)”. Besides, the MIC in [9] stood at 0.25 µg/mL (≈ 0.694 µM); in data set [11], 4 µg/mL (≈ 11.1 µM); in data set [12], 0.5 µg/mL (≈ 1.39 µM); in data set [13] (setting [20]) it was 0.5 µg/mL (≈ 1.39 µM); in data set [2], 0.25 µg/mL (≈ 0.694 µM); in [3] (setting [16]), 0.25 µg/mL (≈ 0.694 µM). Moreover, the MIC in [4] (setting [17]) came out at 0.03 µg/mL (≈ 0.0832 µM); in data set [5] (setting [18]), 8 µg/mL (≈ 22.2 µM); in data set [6] (setting [19]) it was 0.5 µg/mL (≈ 1.39 µM); in data set [15] it was 0.5 µg/mL. For the same molecule, the “MIC fold increase S. aureus 2558 (in parentheses)” value in data set [10] is on record as “(4x)”. This molecule gave a pIC50 in [1] of 5.68. For the same molecule, the “MIC fold increase N. g. 2709 (in parentheses)” value in data set [11] was “(8x)”. The “MIC fold increase S. aureus 2552 (in parentheses)” value in data set [12] is “(2x)”. Besides, the “MIC fold increase N. g. 2693 (in parentheses)” value in data set [14] was “(16x)”.

For the origin of these results see patent US20030114666A1, “Antibacterial agents” (priority 2001, published 2003).
